Assay results from patent EP2394998A1, “3-(5-Amino-6-oxo-1,6-dihydropyridazin-3-yl)-biphenyl derivatives as PDE4 inhibitors” (Almirall, S.A., priority 2010, dated 2011).

target: recombinant PDE4 enzyme; experiment: PDE4 assay: [3H] cAMP Scintillation Proximity Assay (SPA) of phosphodiesterase activity; format: biochemical; conditions: yeast extract of recombinant PDE4 enzyme; 30 nM [3H] cAMP; 1 h at room temperature; pH 7.5
Procedure: Measurement of Phosphodiesterase Activity was done using a [3H] cAMP Scintillation Proximity Assay (SPA) (GE Healthcare). Compounds to be tested were disolved in dimethylsulfoxide (DMSO) at a stock concentration of 1 mM and serial dilutions were prepared in 50% DMSO to determine IC50s.
The reactions were conducted in 96-well plates (Corning, Ref.3604) at room temperature, in 0.1 mL of reaction buffer containing (final concentrations): 50 mM Tris-HCl, pH 7.5, 8.3 mM MgCl2, 1.7 mM EGTA, 30 nM [3H] cAMP (approximately 150000 dpm/well) with or without the inhibitors. The reaction was initiated by adding yeast extract of recombinant PDE4 enzyme.
Plates were shaken for 1 h at room temperature and the incubation was terminated by adding 50 µL (0.5 mg /well) of SPA ytrium silicate beads (RPNQ 0150; GE Healthcare) in the presence of zinc sulfate. Plates were stored overnight in the dark and read on a TRILUX microtiter plate reader (Perkin Elmer).

Structure (SMILES) | IC50
CCn1nc(-c2cccc(-c3cccc(C(N)=O)c3)c2)cc(Nc2cccc3c2ccc[n+]3[O-])c1=O [Example 7, 3'-{1-ethyl-5-[(1-oxidoquinolin-5-yl)amino]-6-oxo-1,6-dihydropyridazin-3-yl}biphenyl-3-carboxamide] | 0.016 nM
CCn1nc(-c2cccc(-c3cccc(C(=O)NC4CC4)c3)c2)cc(Nc2cccc3ncccc23)c1=O [Example 13, N-cyclopropyl-3'-[1-ethyl-6-oxo-5-(quinolin-5-ylamino)-1,6-dihydropyridazin-3-yl]biphenyl-3-carboxamide] | 0.037 nM
CCn1nc(-c2cccc(-c3cccc(C(=O)NC4CCC4)c3)c2)cc(Nc2cccc3ncccc23)c1=O [Example 25, N-cyclobutyl-3'-[1-ethyl-6-oxo-5-(quinolin-5-ylamino)-1,6-dihydropyridazin-3-yl]biphenyl-3-carboxamide] | 0.209 nM
CCn1nc(-c2cccc(-c3cccc(C(=O)NC4CCCC4)c3)c2)cc(Nc2cccc3ncccc23)c1=O [Example 27, N-cyclopentyl-3'-[1-ethyl-6-oxo-5-(quinolin-5-ylamino)-1,6-dihydropyridazin-3-yl]biphenyl-3-carboxamide] | 0.016 nM
CCn1nc(-c2cccc(-c3cccc(C(=O)NCCCCCCCN(C)CCO)c3)c2)cc(Nc2cccc3ncccc23)c1=O [Example 29, 3'-[1-ethyl-6-oxo-5-(quinolin-5-ylamino)-1,6-dihydropyridazin-3-yl]-N-{7-[(2-hydroxyethyl)(methyl)amino]heptyl}biphenyl-3-carboxamide] | 0.025 nM
CCn1nc(-c2cccc(-c3cccc(CCC(=O)NC4CC4)c3)c2)cc(Nc2cccc3ncccc23)c1=O [Example 38, N-cyclopropyl-3-{3'-[1-ethyl-6-oxo-5-(quinolin-5-ylamino)-1,6-dihydropyridazin-3-yl]biphenyl-3-yl}propanamide] | 0.101 nM
CCn1nc(-c2cccc(-c3cccc(C(=O)NCC(N)=O)c3)c2)cc(Nc2cccc3ncccc23)c1=O [Example 48, N-(2-Amino-2-oxoethyl)-3'-(1-ethyl-6-oxo-5-(quinolin-5-ylamino)-1,6-dihydropyridazin-3-yl)biphenyl-3-carboxamide] | 0.041 nM
CCn1nc(-c2cccc(-c3cccc(C(=O)NCC(=O)O)c3)c2)cc(Nc2cccc3ncccc23)c1=O [Example 49, N-({3'-[1-ethyl-6-oxo-5-(quinolin-5-ylamino)-1,6-dihydropyridazin-3-yl]biphenyl-3-yl}carbonyl)glycine] | 0.042 nM
CCn1nc(-c2cccc(-c3ccc(CC(=O)NCCN4CCCCC4)cc3)c2)cc(Nc2cccc3ncccc23)c1=O [Example 54, 2-{3'-[1-ethyl-6-oxo-5-(quinolin-5-ylamino)-1,6-dihydropyridazin-3-yl]biphenyl-4-yl}-N-(2-piperidin-1-ylethyl)acetamide] | 0.09 nM
CCn1nc(-c2cccc(-c3cc(C(=O)NCCCN4CCC[C@H]4COC)cc(C(=O)NC4CC4)c3)c2)cc(Nc2cccc3ncccc23)c1=O [Example 62, N-cyclopropyl-3'-[1-ethyl-6-oxo-5-(quinolin-5-ylamino)-1,6-dihydropyridazin-3-yl]-N'-{3-[(2S)-2-(methoxymethyl)pyrrolidin-1-yl]propyl}biphenyl-3,5-dicarboxamide] | 0.023 nM
CCn1nc(-c2cccc(-c3cc(C(=O)NCCN4CCC[C@H]4COC)cc(C(=O)NC4CC4)c3)c2)cc(Nc2cccc3ncccc23)c1=O [Example 63, N-cyclopropyl-3'-[1-ethyl-6-oxo-5-(quinolin-5-ylamino)-1,6-dihydropyridazin-3-yl]-N'-{2-[(2S)-2-(methoxymethyl)pyrrolidin-1-yl]ethyl}biphenyl-3,5-dicarboxamide] | 0.037 nM

Further lines, results first:

IC50 | Structure (SMILES)
0.445 nM | CCn1nc(-c2cccc(-c3ccc(C(=O)O)cc3)c2)cc(Nc2cncc3ccccc23)c1=O [Example 5, 3'-[1-ethyl-5-(isoquinolin-4-ylamino)-6-oxo-1,6-dihydropyridazin-3-yl]biphenyl-4-carboxylic acid]
0.125 nM | CCn1nc(-c2cccc(-c3cccc(C(=O)NCCN(C)C)c3)c2)cc(Nc2cccc3ncccc23)c1=O [Example 12, N-[2-(dimethylamino)ethyl]-3'-[1-ethyl-6-oxo-5-(quinolin-5-ylamino)-1,6-dihydropyridazin-3-yl]biphenyl-3-carboxamide]
0.019 nM | CCn1nc(-c2cccc(-c3cccc(C(=O)NCCN4CCOCC4)c3)c2)cc(Nc2cccc3ncccc23)c1=O [Example 15, 3'-[1-ethyl-6-oxo-5-(quinolin-5-ylamino)-1,6-dihydropyridazin-3-yl]-N-(2-morpholin-4-ylethyl)biphenyl-3-carboxamide]
0.045 nM | CCn1nc(-c2cccc(-c3cccc(C(=O)NCCN4CCCCC4)c3)c2)cc(Nc2cccc3ncccc23)c1=O [Example 16, 3'-[1-ethyl-6-oxo-5-(quinolin-5-ylamino)-1,6-dihydropyridazin-3-yl]-N-(2-piperidin-1-ylethyl)biphenyl-3-carboxamide]
0.043 nM | CCn1nc(-c2cccc(-c3cccc(C(=O)NCCN4CCOCC4)c3)c2)cc(Nc2cncc3ccccc23)c1=O [Example 17, 3'-[1-ethyl-5-(isoquinolin-4-ylamino)-6-oxo-1,6-dihydropyridazin-3-yl]-N-(2-morpholin-4-ylethyl)biphenyl-3-carboxamide]
0.223 nM | CCn1nc(-c2cccc(-c3cccc(C(=O)NC4CCC4)c3)c2)cc(Nc2cncc3ccccc23)c1=O [Example 19, N-cyclobutyl-3'-[1-ethyl-5-(isoquinolin-4-ylamino)-6-oxo-1,6-dihydropyridazin-3-yl]biphenyl-3-carboxamide]
0.128 nM | CCn1nc(-c2cccc(-c3ccc(C(=O)NCCN4CCCCC4)cc3)c2)cc(Nc2cncc3ccccc23)c1=O [Example 22, 3'-[1-ethyl-5-(isoquinolin-4-ylamino)-6-oxo-1,6-dihydropyridazin-3-yl]-N-(2-piperidin-1-ylethyl)biphenyl-4-carboxamide]
0.172 nM | CCn1nc(-c2cccc(-c3cccc(C(=O)NC4CCN(C)CC4)c3)c2)cc(Nc2cncc3ccccc23)c1=O [Example 36, 3'-[1-ethyl-5-(isoquinolin-4-ylamino)-6-oxo-1,6-dihydropyridazin-3-yl]-N-(1-methylpiperidin-4-yl)biphenyl-3-carboxamide]
